ChEMBL document CHEMBL1133423, “Synthesis, DNA binding, topoisomerases inhibition and cytotoxic properties of 4-arylcarboxamidopyrrolo-2-carboxyanilides” (Bioorg Med Chem Lett, 2000)

Experiments:
HL-60 = experiment: Antiproliferative activity of compound against HL60 leukemia cells; type: functional, cell-based; details: Homo sapiens
Nucleic Acid = experiment: Binding affinity of compound for calf thymus DNA was determined; type: nucleic-acid assay; details: Bos taurus

Structure (SMILES) | IC50 (HL-60) [µM] | Ka (Nucleic Acid) [M⁻¹]
Cn1cc(NC(=O)c2ccc(CN)cc2)cc1C(=O)Nc1ccc(CN)cc1 | 5.4 | 680000
NCc1ccc(NC(=O)c2cc(NC(=O)c3ccc(CN)cc3)cn2Cc2ccccc2)cc1 | 8.2 | 340000
NCc1ccc(NC(=O)c2cc(NC(=O)c3ccc(CN)cc3)c[nH]2)cc1 | 1.7 | 950000
